Measured values reported in patent US7777038B2, “Carbostyril compound” (Otsuka Pharmaceutical Co., Ltd., priority 2004, dated 2010).

Key:
[1] = tested on: acetic acid-induced gastric ulcers; experiment: Healing effects on rat models with acetic acid-induced gastric ulcers; type: in vivo; conditions: oral, once a day for 8 days, dose 10 mg/kg, ulcerated area vs vehicle (0.5% CMC)
Method: Healing Effects on Rat Models with Acetic Acid-Induced Gastric Ulcers
(1) Production of Gastric Ulcer by Acetic Acid
Rats were fasted from the previous day. A celiotomy was done in each rat under ether anesthesia, and the stomach was exteriorized. Subsequently, 20 μL of a 30% acetic acid solution was injected into the submucosa at the junction of the body of the glandular stomach and the pyloric antrum using a disposable syringe to produce a gastric ulcer.
(2) Test Compound Administration
Each test compound was suspended in a 0.5% carboxymethylcelullose (CMC) solution at concentrations of 0.75 or 2.5 mg/ml. The rats were orally administrated once a day for 8 days starting with the forth day from operation at doses of 3 or 10 mg/kg. A gastric tube and a syringe were used for the oral administration. […]
On the next day the vehicle and the test compound were finally administrated to the rats, the rats were sacrificed by exsanguination under anesthesia with ether, and each stomach was removed. The removed stomachs were fixed in 1% formalin for 15 minutes, dissected along the greater curvature of stomach to expose the ulcer, and the ulcerated area was measured. […]
The ulcerated area was measured under a stereo microscope (10×) with an ocular micrometer (1 mm^2/grid), and the percentage healing ratio was calculated. The percentage healing ratio was calculated by the following formula.

[2] = tested on: human Trefoil Factor 2 (hTFF2) gene; experiment: hTFF2 gene reporter assay (luciferase) using pGL3-hTFF2pro•pWL-neo/MKN-45 #6-2 cell line; type: cell-based; conditions: test compound concentration 10^−6 M; 24 hours culture; luciferase activity as control % of dimethylsulfoxide-added wells (100%)
Method: Transcription promoting activity on human Trefoil Factor 2 (hTFF2) gene of test compounds was evaluated by means of an hTFF2 gene reporter assay.
(1) Preparation of hTFF2 Gene Reporter Vector pGL3-hTFF2pro
DNA was extracted from HeLa cells (CCL-2, DAINIPPON PHARMACEUTICAL CO., LTD.) using a deoxyribonucleic acid (DNA) extraction kit (DNeasy™ Tissue Kit, manufactured by QIAGEN). The hTFF2 promoter region was amplified using the extracted DNA as a template by means of the polymerase chain reaction (PCR). The oligomers 5′-[…]-3′ and 5′-[…]-3′ were selected as PCR primers to be amplified, based on the report by Beck et al. (Beck S., Sommer P., Blin N., Gott P., 5′-flanking motifs control cell-specific expression of trefoil factor genes (TFF), Int. J. Mol. Med. 2(3), 353-361 (1998)). Platinum® Pfx DNA polymerase was used as DNA polymerase. The PCR was performed under the conditions of denaturing for 30 seconds at 95° C., annealing for 30 seconds at 55° C. and extending for 75 seconds at 68° C., and the procedures were repeated for 32 cycles.
The PCR products were separated and purified by 1% agarose gel electrophoresis, and cloned to a pCR-BluntII-TOPO vector attached to a cloning kit (Zero Blunt® TOPO® PCR Cloning Kit, manufactured by Invitrogen Corporation). The produced plasmid pCR-Blunt-TFF2pro was introduced into E. coli for transformation (TOP 10 Ultracomp™ Cells, manufactured by Invitrogen Corporation), and transformant strain pCR-Blunt-TFF2pro/TOP10 was selectively cultured in LB agar medium containing 30 μg/ml of Zeocin (Zeocin, manufactured by Invitrogen Corporation). The pCR-Blunt-TFF2pro/TOP10 was subjected to shaking culture in 50 ml of LB medium containing 30 μg/ml of Zeocin at 37° C. over night, and a plasmid was prepared using a plasmid preparation kit (Concert™ High Purity Midiprep System, manufactured by GIBCO BRL).
The nucleotide sequence of the PCR product cloned to the plasmid pCR-Blunt-TFF2pro was determined. The determined nucleotide sequence was compared with the counterpart of hTFF2 promoter region reported in a gene bank (GenBank accession AB038162). The nucleotide sequence of the MluI-HindIII region cloned in pCR-Blunt-TFF2pro was identical to GenBank accession AB038162 (FIG. 1).
The underlined portions indicate the recognition sequence (ACGCGT) of the restriction enzyme MluI and the recognition sequence (AAGCTT) of the restriction enzyme HindIII. The nucleotide sequences of the MluI-HindIII region are identical between the hTFF2 promoter region reported in GenBank and the PCR product cloned to the plasmid pCR-Blunt-TFF2pro. […]

melting point [°C]	Compound	Healing Ratio (%) [1] [%]	TFF2 Production Promoting Activity [2]
254 to 255	COc1ccc(CC2SC(=O)NC2=O)c2ccc(=O)n(C)c12 (stereo not drawn) [Example 1, 5-(8-methoxy-1-methyl-2-oxo-1,2-dihydroquinolin-5-ylmethyl)thiazolidine-2,4-dione]	>20	–
193.1 to 195.5	COC(=O)c1ccc(CN2C(=O)CCc3c(CC4SC(=O)NC4=O)ccc(OC)c32)cc1 (stereo not drawn) [Example 25, 5-[8-methoxy-1-(4-methoxycarbonylbenzyl)-2-oxo-1,2,3,4-tetrahydroquinolin-5-ylmethyl]thiazolidine-2,4-dione]	–	++ (a TFF2 production promoting activity of 1000% or higher at a test compound concentration of 10^−6 M)
139.5 to 141	COc1ccc(CC2SC(=S)NC2=O)c2c1N(CCC(C)C)C(=O)CC2 (stereo not drawn) [Example 1315, 8-methoxy-1-(3-methylbutyl)-5-(4-oxo-2-thioxothiazolidin-5-ylmethyl)-3,4-dihydro-1H-quinolin-2-one]	–	++ (a TFF2 production promoting activity of 1000% or higher at a test compound concentration of 10^−6 M)
